# Where a name gives a salt, the structure may show the parent alone.
# Columns and labels:
# MET (human) = MET (human) (Homo sapiens, UniProt P08581); experiment: MET (human)-Km of ATP AlphaScreen kinase assay; settings: biochemical, ATP at Km
# Protocol: MET (human)-Km of ATP: MET assay is performed in a 384 well assay containing 200 ng/μL biotinylated poly(Glu, Tyr), 0.334 mM vanadate, desired concentration of ATP optimized for the enzyme in assay buffer (50 mM HEPES (pH=7.4), 5 mM MgCl2, 5 mM MnCl2, and 1% glycerol). Desired compound is added in a final concentration of 1% DMSO with control being vehicle of DMSO alone. MET is diluted to the optimized concentration (optimized on a lot-by-lot basis) in an enzyme diluent buffer (50 mM Tris pH=7.4, 1% glycerol, 0.03% Brij35, 0.24 mM EGTA, 1 mM DTT, and 0.003% BSA). Enzyme is added to initiate the reaction and incubated for 60 min at RT. In subdued light, appropriate amount of PT66 donor and acceptor beads (diluted 1:260 from manufacturer's provision in a 25 mM Tris HCl (pH=7.5), 400 mM NaCl, 100 mM EDTA, 0.3% BSA buffer) are added to the wells. The plates, incubated for 1 h, are read on an AlphaQuest plate reader
# RON (human) = RON (human) (Homo sapiens, UniProt Q04912); experiment: RON (human)-Km of ATP AlphaScreen kinase assay; settings: biochemical, ATP at Km
# Protocol: RON (human)-Km of ATP: RON assay is performed in a 384 well assay containing 200 ng/μL biotinylated poly(Glu, Tyr), 0.334 mM vanadate, desired concentration of ATP optimized for the enzyme in assay buffer (50 mM HEPES (pH=7.4), 12.5 mM MgCl2 and 1% glycerol). Desired compound is added in a final concentration of 1% DMSO with control being vehicle of DMSO alone. RON is diluted to the optimized (on a lot-by-lot basis) concentration in an enzyme diluent buffer (50 mM HEPES pH=7.4, 12.5 mM MgCl2 and 1% glycerol, 0.03% Brij35, 0.3 mM EGTA, 1 mM DTT, and 0.003% BSA). Enzyme is added to initiate the reaction and incubated for 30 min at RT. In subdued light, appropriate amount of PT66 donor and acceptor beads (diluted 1:260 from manufacturer's provision in a 25 mM Tris HCl (pH=7.5), 200 mM NaCl, 100 mM EDTA, 0.3% BSA buffer) are added to the wells. The plates, incubated for 1 h, are read on an AlphaQuest plate reader.
# Sequence of MET (human) (P08581 25-1390): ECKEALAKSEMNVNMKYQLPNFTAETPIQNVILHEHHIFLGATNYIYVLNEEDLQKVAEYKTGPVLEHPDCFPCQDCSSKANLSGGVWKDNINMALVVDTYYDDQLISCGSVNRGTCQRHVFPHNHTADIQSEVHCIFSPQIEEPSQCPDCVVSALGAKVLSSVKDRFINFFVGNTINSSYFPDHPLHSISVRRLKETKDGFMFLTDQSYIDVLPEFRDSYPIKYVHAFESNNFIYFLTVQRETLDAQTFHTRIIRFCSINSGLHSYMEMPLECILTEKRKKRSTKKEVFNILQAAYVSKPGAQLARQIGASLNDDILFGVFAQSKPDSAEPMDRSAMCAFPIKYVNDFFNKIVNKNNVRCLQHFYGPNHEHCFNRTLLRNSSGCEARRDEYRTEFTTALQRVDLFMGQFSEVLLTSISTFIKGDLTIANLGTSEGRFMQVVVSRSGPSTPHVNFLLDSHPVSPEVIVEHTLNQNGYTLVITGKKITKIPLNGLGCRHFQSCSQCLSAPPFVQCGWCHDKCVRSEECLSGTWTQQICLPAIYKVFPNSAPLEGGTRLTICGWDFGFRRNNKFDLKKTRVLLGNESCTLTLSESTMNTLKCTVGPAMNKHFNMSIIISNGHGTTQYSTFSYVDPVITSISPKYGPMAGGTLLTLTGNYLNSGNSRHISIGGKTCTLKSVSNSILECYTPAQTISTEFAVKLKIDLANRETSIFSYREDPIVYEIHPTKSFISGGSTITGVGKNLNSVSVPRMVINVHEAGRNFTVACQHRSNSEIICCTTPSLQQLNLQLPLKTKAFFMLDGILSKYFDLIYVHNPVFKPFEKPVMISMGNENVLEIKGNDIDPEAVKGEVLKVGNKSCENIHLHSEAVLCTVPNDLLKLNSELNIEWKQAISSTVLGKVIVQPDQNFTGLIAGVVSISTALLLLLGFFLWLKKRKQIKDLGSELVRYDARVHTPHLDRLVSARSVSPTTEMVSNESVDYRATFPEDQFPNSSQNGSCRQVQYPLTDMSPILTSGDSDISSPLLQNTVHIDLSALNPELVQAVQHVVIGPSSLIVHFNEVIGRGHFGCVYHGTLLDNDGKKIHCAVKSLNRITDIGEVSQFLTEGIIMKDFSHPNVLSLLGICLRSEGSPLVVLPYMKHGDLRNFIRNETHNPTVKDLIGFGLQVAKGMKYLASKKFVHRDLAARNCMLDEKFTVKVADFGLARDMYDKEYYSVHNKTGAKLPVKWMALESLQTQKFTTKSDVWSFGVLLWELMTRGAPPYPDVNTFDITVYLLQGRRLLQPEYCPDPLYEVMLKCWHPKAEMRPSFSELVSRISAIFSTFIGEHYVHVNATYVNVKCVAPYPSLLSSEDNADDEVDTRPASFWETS
# Sequence of RON (human) (Q04912 25-1400): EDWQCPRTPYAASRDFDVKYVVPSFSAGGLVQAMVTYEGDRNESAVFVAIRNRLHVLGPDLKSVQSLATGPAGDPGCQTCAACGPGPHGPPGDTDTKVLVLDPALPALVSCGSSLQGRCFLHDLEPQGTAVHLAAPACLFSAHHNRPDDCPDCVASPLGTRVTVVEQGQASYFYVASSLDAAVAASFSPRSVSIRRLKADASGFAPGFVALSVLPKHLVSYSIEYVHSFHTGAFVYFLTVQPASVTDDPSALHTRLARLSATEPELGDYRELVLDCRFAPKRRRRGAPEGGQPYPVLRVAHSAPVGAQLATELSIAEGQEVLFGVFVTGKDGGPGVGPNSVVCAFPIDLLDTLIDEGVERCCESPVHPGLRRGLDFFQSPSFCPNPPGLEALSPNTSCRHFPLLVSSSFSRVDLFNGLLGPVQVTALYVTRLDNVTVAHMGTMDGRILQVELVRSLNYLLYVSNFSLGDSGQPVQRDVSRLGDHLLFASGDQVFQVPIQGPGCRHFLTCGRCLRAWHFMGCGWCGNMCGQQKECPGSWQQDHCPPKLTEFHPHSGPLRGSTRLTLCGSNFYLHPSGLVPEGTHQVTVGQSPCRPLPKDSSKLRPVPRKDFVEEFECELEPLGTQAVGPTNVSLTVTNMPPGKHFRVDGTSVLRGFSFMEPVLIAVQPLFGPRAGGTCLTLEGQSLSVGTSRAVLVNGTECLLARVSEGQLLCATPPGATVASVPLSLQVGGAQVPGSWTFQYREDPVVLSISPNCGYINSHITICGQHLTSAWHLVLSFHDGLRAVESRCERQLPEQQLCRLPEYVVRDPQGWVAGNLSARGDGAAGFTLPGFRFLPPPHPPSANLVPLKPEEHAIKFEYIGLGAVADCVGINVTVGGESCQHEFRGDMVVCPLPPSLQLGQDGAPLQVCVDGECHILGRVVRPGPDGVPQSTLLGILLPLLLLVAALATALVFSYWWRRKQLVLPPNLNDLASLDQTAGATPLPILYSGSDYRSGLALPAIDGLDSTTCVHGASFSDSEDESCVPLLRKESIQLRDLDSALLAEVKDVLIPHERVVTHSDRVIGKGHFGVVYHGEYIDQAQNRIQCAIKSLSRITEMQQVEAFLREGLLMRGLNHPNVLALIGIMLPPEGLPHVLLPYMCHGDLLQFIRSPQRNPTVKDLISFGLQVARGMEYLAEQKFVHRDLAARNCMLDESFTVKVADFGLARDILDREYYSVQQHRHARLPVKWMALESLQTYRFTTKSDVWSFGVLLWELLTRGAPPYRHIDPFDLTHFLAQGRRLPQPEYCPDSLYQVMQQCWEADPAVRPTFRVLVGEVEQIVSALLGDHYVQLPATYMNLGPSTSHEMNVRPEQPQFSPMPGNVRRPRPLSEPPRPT
IC50 (MET (human)),IC50 (RON (human)),Compound
5 to 20 µM,5 to 20 µM,"C[C@@H](Oc1c(N)ncc2[nH]ccc12)c1c(Cl)ccc(F)c1Cl [Example 1, 4-[(R)-1-(2,6-Dichloro-3-fluorophenyl)ethoxy]-1H-pyrrolo[2,3-c]pyridin-5-ylamine]"
≤ 5 µM,≤ 5 µM,"C[C@@H](Oc1c(N)ncc2c1ccn2CCC1CCNCC1)c1c(Cl)ccc(F)c1Cl [Example 5, 4-[(R)-1-(2,6-Dichloro-3-fluorophenyl)ethoxy]-1-(2-piperidin-4-ylethyl)1H-pyrrolo[2,3-c]pyridin-5-ylamine bis-hydrochloride]"
≤ 5 µM,≤ 5 µM,"Nc1ncc2c(ccn2CCC2CCNCC2)c1-c1cc2ccccc2o1 [Example 10, [(4-Benzofuran-2-yl)-1-(2-piperidin-4-ylethyl)-1H-pyrrolo[2,3-c]pyridin-5-yl]amine bis-hydrochloride]"
> 20 µM,> 20 µM,"Nc1ncc2[nH]ccc2c1-c1cc2ccccc2o1 [Example 7, 4-Benzofuran-2-yl-1H-pyrrolo[2,3-c]pyridin-5-ylamine]"
,> 20 µM,"Nc1ncc2c(ccn2Cc2ccccc2)c1-c1cc2ccccc2o1 [Example 8, [(4-Benzofuran-2-yl)-1-benzyl-1H-pyrrolo[2,3-c]pyridin-5-yl]amine]"
5 to 20 µM,> 20 µM,"C[C@@H](Oc1c(N)ncc2c1ccn2C)c1c(Cl)ccc(F)c1Cl [Example 2, 4-[(R)-1-(2,6-Dichloro-3-fluorophenyl)ethoxy]-1-methyl-1H-pyrrolo[2,3-c]pyridin-5-ylamine]"
5 to 20 µM,> 20 µM,"C[C@@H](Oc1c(N)ncc2c1ccn2S(=O)(=O)c1ccccc1)c1c(Cl)ccc(F)c1Cl [Example 6, 1-Benzenesulfonyl-4-[(R)-1-(2,6-dichloro-3-fluorophenyl)ethoxy]-1H-pyrrolo[2,3-c]pyridin-5-ylamine]"

# From patent US20120329826A1, “SUBSTITUTED-5-AMINOPYRROLO/PYRAZOLOPYRIDINES” (OSI Pharmaceuticals,. LLC, priority 2010, published 2012)
